The conditions of data set [1]: acetic acid value given as TWA; cited from earlier work.
A further data set concerns Candida albicans. The experiment in a line: Deactivation kinetics (Weibull model) with PAA, with and without UVC. Type of data set: cell-based. The source says:
(§1) In most cases, especially for the PAA+UVC combination, they are nonlinear in coordinates log10[CFU]:-t. Formally it means that it was not a classical first-order reaction. The first-order model assumes that the cells and spores in a population have the same resistance and that the relationship between the decline in the number of survivors over the treatment time is linear. The model can be written as log10(N/N0)=−kt, where N0 is the initial number of cells (CFU/ml), N is the number of survivors after an exposure time t (CFU/ml), k is the rate parameter, and t is the treatment time (min). The D value, a typical index of inactivation kinetics, is the decimal reduction time in minutes (time required to kill 90% of the organisms).
(§2) The Weibull model assumes that the survival curve is a cumulative distribution of lethal effects. The cumulative form of the Weibull distribution is given by log10(N/N0)=[…], where b and n are the scale and shape parameters, respectively. When the shape parameter n is greater than or less than 1, the shape of the survival curve will present a shoulder or tailing, respectively. When n=1, the cumulative form of the Weibull distribution reduces to the first-order rate equation. For the Weibull model, the parameter td, which is analogous to the traditional D value, can be determined. td is the time required for d log reductions of the number of microorganisms and was calculated by the parameters b and n as shown in the equation
(§3) where d is the desired log reduction, b=k and 2.303 is coefficient due to the shift from base e logarithms to base 10 ones.

The next data set deals with Salmonella enterica. The description is as above. Type of data set: cell-based.
Description: as §1, §2, §3

A further data set relates to Pseudomonas aeruginosa. The data set is described as above. The format is cell-based.
Description: as §1, §2, §3

The next data set relates to Staphylococcus aureus. Described as above. The format is cell-based.
Description: as §1, §2, §3

The test system of data set [2] is Clostridium difficile ATCC43539. The experiment in a line: Room decontamination test, inoculated dirty petri dishes (5% horse serum), two hours. The format is cell-based. Particulars: 5% w/w peracetic acid solution, 66 m^3 room. Here is the method:
A room of volume 66 m^3 (6 m×4.2 m (floor area)×2.6 m (height)) was used as a test room. The room was closed in the usual way, that a domestic, clinic or hospital room would be closed off by closing windows, doors and external vents and turning off any air-conditioning. However, the room was not hermetically sealed and a small amount of airflow was permissible. The temperature of the test room was ambient room temperature (between 20° C. and 25° C.).
A peracetic acid vapour/mist generator (nebulizer) was positioned along the smaller wall, at a height of about 1.21 m.
The peracetic acid vapour/mist generator utilised a commercially available 5% w/w peracetic acid solution. Peracetic acid is sold as an equilibrium mixture of hydrogen peroxide, acetic acid and water. 5% w/w Peracetic acid solution typically comprises 20-30% w/w hydrogen peroxide, 6-10% w/w acetic acid 4.5-5.4% w/w peracetic acid and the balance being water. In many embodiments of the present invention, the 5% w/w peracetic acid solution used comprised 24% w/w hydrogen peroxide, 7.5% w/w acetic acid 5% w/w peracetic acid and the balance being water.
The peracetic acid vapour/mist generator was also accompanied by a UV light that was located in the same housing. […] That is a known germicidal wavelength. The UV light shone upon all the exposed surfaces in the room. The UV lamp was 18 watts. The bulb used synthetic quartz to prevent escape of 185 nm ozone-forming radiation.
The UV-C light and peracetic acid vapour/mist generator could be operated independently or simultaneously, allowing for a direct comparison of the individual decontaminating agents with each other and with the combination.
Immediately before commencing sterilization, petri dishes containing inoculum were placed at three discrete locations within the room—one close to the UV/peracetic acid device (e.g. 80 cm from the device), one in the middle of the room and the other at the opposite end of the room. The dishes were also placed at differing heights. The petridishes were “dirty” and contained 5% horse serum. […] The number of microorganisms was counted. […]

The text below walks through data of patent US20230372569A1 (priority 2020, published 2023).

In the case of `CC(=O)OO` [Peracetic Acid only, Peracetic acid], the vapour safety level in data set [1] is 0.17 ppm. Further, the “D (decimal reduction time)” value with Candida albicans was 37 min; with Salmonella enterica, 70 min; in the data set on Pseudomonas aeruginosa it was 168 min; in the data set with Staphylococcus aureus, 223 min. The “k (Weibull deactivation constant)” value in the data set on Candida albicans worked out at 0.45 h⁻¹; with Salmonella enterica it was 0.2 h⁻¹; in the data set on Pseudomonas aeruginosa it was 0.052 h⁻¹; with Staphylococcus aureus it was 0.055 h⁻¹. The “n (Weibull shape parameter)” value in the data set on Candida albicans came to 1.25; in the data set with Salmonella enterica it was 1.24; in the data set with Pseudomonas aeruginosa, 1.5; in the data set with Staphylococcus aureus it was 1.13. Moreover, in data set [2] (Location 1 (close to device)), the “Log reduction, Location 1” value is recorded as “Log 0.71 log”. Moreover, the “Log reduction, Location 2” value in data set [2] (Location 2 (middle of room)) was “log 0.97”. In data set [2] (Location 3 (opposite end of room)), the “Log reduction, Location 3” value is reported as “log 1.19”.
As for `CC(=O)O` [acetic acid], the vapour safety level in data set [1] is on record as 10 ppm.
